Results reported in patent US4288590A, “7 -[Dα-(4-Hydroxy-1,5-naphthyridine-3-carboxamido)-α-arylacetam ido]-3-(N,N-dimethyl-aminomethylpyridinium) methyl-3-cephem-4-carboxylates” (Bristol-Myers Company, priority 1980, dated 1981).
Converted amounts (≈) assume the structure as drawn. Where a name gives a salt, the structure may show the parent alone. Read-outs that look alike come from different tables or passages of the source.

Legend:
Assay in all cases: MIC, serial two-fold agar dilution (Table 1)
Assay type in all cases: cell-based
E. coli A15164 = conditions: Escherichia coli; E. coli A15164, cephalothin-resistant; Mueller-Hinton agar
Procedure: (§1) Minimum inhibitory concentrations (MIC) of BB-S 651, BB-S 669 and BB-S 676 were determined by serial two-fold agar dilution method using Steers' apparatus on Mueller-Hinton agar plate against 15 test organisms for primary screening as shown in Table 1.

[1] = system: S. aureus BX-1633-2 A9606; conditions: Staphylococcus aureus, BX16332A9606
Procedure: as §1

Ps. aeruginosa A9843 = conditions: Pseudomonas aeruginosa, Mueller-Hinton agar
Procedure: as §1

S. aureus 209P A9497 = conditions: Staphylococcus aureus
Procedure: as §1

E. coli A9660 = conditions: Escherichia coli; E. coli A9660, cephalothin-sensitive; Mueller-Hinton agar
Procedure: as §1

E. coli Juhl A15119 = conditions: Escherichia coli, JUHLA15119; E. coli Juhl A15119, cephalothin-sensitive; Mueller-Hinton agar
Procedure: as §1

Ps. aeruginosa A20718 = conditions: Pseudomonas aeruginosa, Mueller-Hinton agar
Procedure: as §1

Ps. aeruginosa A20229 = conditions: Pseudomonas aeruginosa, Mueller-Hinton agar
Procedure: as §1

E. cloacae A9656 = conditions: Enterobacter cloacae, Mueller-Hinton agar
Procedure: as §1

S. aureus Smith A9537 = conditions: Staphylococcus aureus, SMITHA9537, Mueller-Hinton agar
Procedure: as §1

Ps. aeruginosa A15150 = conditions: Pseudomonas aeruginosa, Mueller-Hinton agar
Procedure: as §1

S. marcescens A20019 = conditions: Serratia marcescens, Mueller-Hinton agar
Procedure: as §1

Ps. aeruginosa A20717 = conditions: Pseudomonas aeruginosa, Mueller-Hinton agar
Procedure: as §1

S. aureus #193 = conditions: Staphylococcus aureus
Procedure: as §1

E. coli A15148 = conditions: Escherichia coli; E. coli A15148, cephalothin-resistant; Mueller-Hinton agar
Procedure: as §1

[2] = S. aureus BX-1633-2 A9606, penicillinase-producing, Mueller-Hinton agar, read-out: MIC
[3] = S. aureus #193, penicillinase-producing, Mueller-Hinton agar, read-out: MIC
[4] = S. aureus 209P A9497, Mueller-Hinton agar, read-out: MIC

CN(C)Cc1cc[n+](CC2=C(C(=O)[O-])N3C(=O)C(NC(=O)[C@H](NC(=O)c4cnc5cccnc5c4O)c4ccc(O)cc4)C3SC2)cc1 (stereo partly drawn) [BB-S 669, 7-[D-α-(4-Hydroxy-1,5-naphthyridine-3-carboxamido)-α-(4-hydroxyphenyl)acetamido]-3-(4-N,N-dimethylaminomethylpyridinium)methyl-3-cephem-4-carboxylate Hydrochloride]
MIC (E. coli A15164): 6.3 µg/mL | MIC [1, 2]: 25 µg/mL | MIC (Ps. aeruginosa A9843): 1.6 µg/mL | MIC (S. aureus 209P A9497; 209P): 3.1 µg/mL | MIC (E. coli A9660): 0.8 µg/mL | MIC (E. coli Juhl A15119): 1.6 µg/mL | MIC (Ps. aeruginosa A20718): 0.8 µg/mL | MIC (Ps. aeruginosa A20229): 1.6 µg/mL | MIC (E. cloacae A9656): 3.1 µg/mL | MIC (S. aureus Smith A9537): 6.3 µg/mL | MIC (Ps. aeruginosa A15150): 0.8 µg/mL | MIC (S. marcescens A20019): 12.5 µg/mL | MIC (Ps. aeruginosa A20717): 3.1 µg/mL | MIC (S. aureus #193; [3]): 25 µg/mL | MIC (E. coli A15148): 0.8 µg/mL

CN(C)Cc1ccc[n+](CC2=C(C(=O)[O-])N3C(=O)C(NC(=O)[C@H](NC(=O)c4cnc5cccnc5c4O)c4ccccc4)C3SC2)c1 (stereo partly drawn) [BB-S 676, 7-[D-α-(4-Hydroxy-1,5-naphthyridine-3-carboxamido)α-phenylacetamido]-3-(3-N,N-dimethylaminomethylpyridinium)methyl-3-cephem-4-carboxylateHydrochloride]
MIC (E. coli A15164): 50 µg/mL | MIC [1, 2]: 6.3 µg/mL | MIC (Ps. aeruginosa A9843): 3.1 µg/mL | MIC (S. aureus 209P A9497; [4]): 1.6 µg/mL | MIC (E. coli A9660): 3.1 µg/mL | MIC (E. coli Juhl A15119): 12.5 µg/mL | MIC (Ps. aeruginosa A20718): 1.6 µg/mL | MIC (Ps. aeruginosa A20229): 3.1 µg/mL | MIC (E. cloacae A9656): 50 µg/mL | MIC (S. aureus Smith A9537): 3.1 µg/mL | MIC (Ps. aeruginosa A15150): 1.6 µg/mL | MIC (S. marcescens A20019): 50 µg/mL | MIC (Ps. aeruginosa A20717): 6.3 µg/mL | MIC (S. aureus #193; [3]): 6.3 µg/mL | MIC (E. coli A15148): 6.3 µg/mL

CC1(C)S[C@@H]2[C@H](NC(=O)C(C(=O)O)c3ccccc3)C(=O)N2[C@H]1C(=O)O (stereo partly drawn) [Carbenicillin, reference compound]
MIC (E. coli A15164): 6.3 µg/mL (≈ 16.6 µM) | MIC [1]: 12.5 µg/mL (≈ 33 µM) | MIC (Ps. aeruginosa A9843): 50 µg/mL (≈ 132 µM) | MIC (S. aureus 209P A9497; [4]): 0.2 µg/mL (≈ 0.529 µM) | MIC (E. coli A9660): 0.8 µg/mL (≈ 2.11 µM) | MIC (E. coli Juhl A15119): 3.1 µg/mL (≈ 8.19 µM) | MIC (Ps. aeruginosa A20718): 25 µg/mL (≈ 66.1 µM) | MIC (Ps. aeruginosa A20229): 50 µg/mL (≈ 132 µM) | MIC (E. cloacae A9656): 3.1 µg/mL (≈ 8.19 µM) | MIC (S. aureus Smith A9537): 0.2 µg/mL (≈ 0.529 µM) | MIC (Ps. aeruginosa A15150): 25 µg/mL (≈ 66.1 µM) | MIC (S. marcescens A20019): 3.1 µg/mL (≈ 8.19 µM) | MIC (Ps. aeruginosa A20717): > 100 µg/mL | MIC (S. aureus #193): 12.5 µg/mL (≈ 33 µM) | MIC (E. coli A15148): 3.1 µg/mL (≈ 8.19 µM)
